Patent US9211310B2, “Use of a Chinese medicine composition in preparing medicaments for treating secondary prevention of myocardial infarction” (TASLY PHARMACEUTICAL GROUP CO., LTD, priority 2010, dated 2015)

Test system: patients after acute myocardial infarction
Assay: Life quality, Seattle Angina Questionnaire (SAQ), same clinical trial
Assay type: in vivo, human
Conditions: PP
Excerpt: 3508 patients who were in accordance with the diagnostic standards of AMI for 28 days to 2 years and differentiated as Qi deficiency and blood stagnation syndrome by TCM were studied. 0.5 g Chinese medicine composition prepared by the method of EXAMPLE 1 (Coded as QSYQ) was administrated half an hour after meal, 3 times per day.
There were 19 questions in the Seattle angina questionnaire (SAQ), including 5 parts: physical limitation (PL), anginal stability (AS), anginal frequency (AF), treatment satisfaction (TS) and disease perception (DP). After being given necessary explanation by doctors, the questions were answered independently by patients.
They included the overall survival time, angina pectoris score, TCM symptom score and life quality score, where angina pectoris score, TCM symptom score and life quality score were evaluated at randomization, in 1st, 3rd, 6th, 9th, 12th month after treatment and 18th month after follow-up.
All evaluation results of SAQ were described during the period of observation, and Wilcoxon rank sum test was used for inter-group comparison.
The evaluation results in the SAQ were depicted in different observations, and inter-group comparison was tested by Wilcoxon Rank-sum test.

Question: How did the “SAQ Question 1-1 Moderately limited, percent of patients” value (6 months after treatment) turn out when `CC(=O)Oc1ccccc1C(=O)O` [Control group, aspirine] was run?
Answer: (0.28%)

Question: And the “SAQ Question 1-1 Not limited, number of patients” value (6 months after treatment)?
Answer: 1368

Question: What about the “SAQ Question 1-1 Not limited, percent of patients” value (6 months after treatment) of the same molecule?
Answer: (94.34%)

Question: What about the “SAQ Question 1-1 Other reasons, number of patients” value (6 months after treatment) of the same molecule?
Answer: 3

Question: What about the “SAQ Question 1-1 Other reasons, percent of patients” value (6 months after treatment) of the same molecule?
Answer: (0.21%)

Question: And the “SAQ Question 1-1 Severely limited, number of patients” value (6 months after treatment)?
Answer: 0

Question: And the “SAQ Question 1-1 Severely limited, percent of patients” value (6 months after treatment)?
Answer: (0.00%)

Question: What about the “SAQ Question 1-1 Slightly limited, number of patients” value (6 months after treatment) of the same molecule?
Answer: 53

Question: And the “SAQ Question 1-1 Slightly limited, percent of patients” value (6 months after treatment)?
Answer: (3.66%)

Question: And the “SAQ Question 1-2 Mildly limited, number of patients” value (6 months after treatment)?
Answer: 19

Question: And the “SAQ Question 1-2 Mildly limited, percent of patients” value (6 months after treatment)?
Answer: (1.31%)

Question: What about the “SAQ Question 1-2 Moderately limited, number of patients” value (6 months after treatment) of the same molecule?
Answer: 6

Question: What about the “SAQ Question 1-2 Moderately limited, percent of patients” value (6 months after treatment) of the same molecule?
Answer: (0.41%)

Question: And the “SAQ Question 1-2 Not limited, number of patients” value (6 months after treatment)?
Answer: 1352

Question: What about the “SAQ Question 1-2 Not limited, percent of patients” value (6 months after treatment) of the same molecule?
Answer: (93.24%)

Question: And the “SAQ Question 1-2 Other reasons, number of patients” value (6 months after treatment)?
Answer: 6

Question: What about the “SAQ Question 1-2 Other reasons, percent of patients” value (6 months after treatment) of the same molecule?
Answer: (0.41%)

Question: What about the “SAQ Question 1-2 Severely limited, number of patients” value (6 months after treatment) of the same molecule?
Answer: 1

Question: And the “SAQ Question 1-2 Severely limited, percent of patients” value (6 months after treatment)?
Answer: (0.07%)

Question: And the “SAQ Question 1-2 Slightly limited, number of patients” value (6 months after treatment)?
Answer: 66

Question: And the “SAQ Question 1-2 Slightly limited, percent of patients” value (6 months after treatment)?
Answer: (4.55%)

Question: What about the “SAQ Question 1-6: Mildly limited, patients (%)” value (6 months after treatment) of the same molecule?
Answer: (16.24%)

Question: What about the “SAQ Question 1-6: Moderately limited, patients (%)” value (6 months after treatment) of the same molecule?
Answer: (12.07%)

Question: What about the “SAQ Question 1-6: Not limited, patients (%)” value (6 months after treatment) of the same molecule?
Answer: (34.35%)

Question: And the “SAQ Question 1-6: Other reasons, patients (%)” value (6 months after treatment)?
Answer: (1.11%)

Question: And the “SAQ Question 1-6: Severely limited, patients (%)” value (6 months after treatment)?
Answer: (3.19%)

Question: What about the “SAQ Question 1-6: Slightly limited, patients (%)” value (6 months after treatment) of the same molecule?
Answer: (33.03%)

Question: And the “SAQ Question 1-7: Mildly limited, patients (%)” value (6 months after treatment)?
Answer: (21.45%)

Question: And the “SAQ Question 1-7: Moderately limited, patients (%)” value (6 months after treatment)?
Answer: (12.58%)

Question: And the “SAQ Question 1-7: Not limited, patients (%)” value (6 months after treatment)?
Answer: (14.47%)

Question: And the “SAQ Question 1-7: Other reasons, patients (%)” value (6 months after treatment)?
Answer: (3.70%)

Question: What about the “SAQ Question 1-7: Severely limited, patients (%)” value (6 months after treatment) of the same molecule?
Answer: (14.88%)

Question: And the “SAQ Question 1-7: Slightly limited, patients (%)” value (6 months after treatment)?
Answer: (32.91%)

Question: What about the “SAQ Question 1-8: Mildly limited, patients (%)” value (6 months after treatment) of the same molecule?
Answer: (25.91%)

Question: And the “SAQ Question 1-8: Moderately limited, patients (%)” value (6 months after treatment)?
Answer: (16.01%)

Question: What about the “SAQ Question 1-8: Not limited, patients (%)” value (6 months after treatment) of the same molecule?
Answer: (10.81%)

Question: And the “SAQ Question 1-8: Other reasons, patients (%)” value (6 months after treatment)?
Answer: (3.79%)

Question: And the “SAQ Question 1-8: Severely limited, patients (%)” value (6 months after treatment)?
Answer: (18.96%)

Question: And the “SAQ Question 1-8: Slightly limited, patients (%)” value (6 months after treatment)?
Answer: (24.51%)

Question: And the “8th question: Mostly satisfied, patients (%)” value (6 months after treatment, second line of the scale)?
Answer: (1.58%)

Question: And the “8th question: Dissatisfied, patients (%)” value (9 months after treatment)?
Answer: (0.28%)

Question: And the “8th question: Highly satisfied, patients (%)” value (9 months after treatment)?
Answer: (23.18%)

Question: What about the “8th question: Mostly dissatisfied, patients (%)” value (9 months after treatment) of the same molecule?
Answer: (1.18%)

Question: What about the “8th question: Mostly satisfied, patients (%)” value (9 months after treatment) of the same molecule?
Answer: (58.78%)

Question: And the “8th question: Partly satisfied, patients (%)” value (9 months after treatment)?
Answer: (16.59%)

Question: What about the “9th question: Few, patients (%)” value (9 months after treatment) of the same molecule?
Answer: (38.61%)

Question: What about the “9th question: Mild, patients (%)” value (9 months after treatment) of the same molecule?
Answer: (32.78%)

Question: And the “9th question: Moderate, patients (%)” value (9 months after treatment)?
Answer: (7.01%)

Question: And the “9th question: Severe, patients (%)” value (9 months after treatment)?
Answer: (0.35%)

Question: What about the “9th question: Uneffective, patients (%)” value (9 months after treatment) of the same molecule?
Answer: (21.25%)

Question: What about the “10th question: Dissatisfied, patients (%)” value (9 months after treatment) of the same molecule?
Answer: (18.81%)

Question: What about the “10th question: Highly satisfied, patients (%)” value (9 months after treatment) of the same molecule?
Answer: (6.18%)

Question: And the “10th question: Mostly dissatisfied, patients (%)” value (9 months after treatment)?
Answer: (19.99%)

Question: And the “10th question: Mostly satisfied, patients (%)” value (9 months after treatment)?
Answer: (29.22%)

Question: And the “10th question: Partly satisfied, patients (%)” value (9 months after treatment)?
Answer: (25.82%)

Question: What about the “11th question: Continuously worried, patients (%)” value (9 months after treatment) of the same molecule?
Answer: (2.43%)

Question: And the “11th question: No worried, patients (%)” value (9 months after treatment)?
Answer: (6.11%)

Question: What about the “11th question: Occasionally worried, patients (%)” value (9 months after treatment) of the same molecule?
Answer: (42.40%)

Question: What about the “11th question: Often worried, patients (%)” value (9 months after treatment) of the same molecule?
Answer: (11.73%)

Question: What about the “11th question: Seldom worried, patients (%)” value (9 months after treatment) of the same molecule?
Answer: (37.34%)

Question: And the “SAQ 4th question, 1-2 times per week: % of patients” value (9 months after treatment)?
Answer: (15.99%)

Question: What about the “SAQ 4th question, 1-2 times per week: number of patients” value (9 months after treatment) of the same molecule?
Answer: 230

Question: What about the “SAQ 4th question, 1-3 times per week: % of patients” value (9 months after treatment) of the same molecule?
Answer: (3.41%)

Question: What about the “SAQ 4th question, 1-3 times per week: number of patients” value (9 months after treatment) of the same molecule?
Answer: 49

Question: And the “SAQ 4th question, <1 time per week: % of patients” value (9 months after treatment)?
Answer: (14.95%)

Question: And the “SAQ 4th question, <1 time per week: number of patients” value (9 months after treatment)?
Answer: 215

Question: And the “SAQ 4th question, Not used: % of patients” value (9 months after treatment)?
Answer: (61.54%)

Question: And the “SAQ 4th question, Not used: number of patients” value (9 months after treatment)?
Answer: 885

Question: And the “SAQ 4th question, ≧3 times per week: % of patients” value (9 months after treatment)?
Answer: (4.03%)

Question: What about the “SAQ 4th question, ≧3 times per week: number of patients” value (9 months after treatment) of the same molecule?
Answer: 58

Question: And the “SAQ 4th question, ≧4 times per day: % of patients” value (9 months after treatment)?
Answer: (0.07%)

Question: And the “SAQ 4th question, ≧4 times per day: number of patients” value (9 months after treatment)?
Answer: 1

Question: What about the “SAQ 5th question, 1-2 times per week: % of patients” value (9 months after treatment) of the same molecule?
Answer: (30.04%)

Question: What about the “SAQ 5th question, 1-2 times per week: number of patients” value (9 months after treatment) of the same molecule?
Answer: 432

Question: What about the “SAQ 5th question, 1-3 times per day: % of patients” value (9 months after treatment) of the same molecule?
Answer: (6.68%)

Question: And the “SAQ 5th question, 1-3 times per day: number of patients” value (9 months after treatment)?
Answer: 96

Question: And the “SAQ 5th question, <1 time per week: % of patients” value (9 months after treatment)?
Answer: (28.65%)
